Measured values published in patent US12435080B2, “sGC stimulators” (Tisento Therapeutics Inc., priority 2016, dated 2025).

Target: T1, sGC (Rattus norvegicus, UniProt P20595)
T1 construct: Rat primary neurons were isolated from fetuses of 18-day pregnant Sprague-Dawley females; endogenous in cells; host or cells: Primary rat hippocampal neurons (E18 Sprague-Dawley fetuses)
T1 sequence (P20595 1-619): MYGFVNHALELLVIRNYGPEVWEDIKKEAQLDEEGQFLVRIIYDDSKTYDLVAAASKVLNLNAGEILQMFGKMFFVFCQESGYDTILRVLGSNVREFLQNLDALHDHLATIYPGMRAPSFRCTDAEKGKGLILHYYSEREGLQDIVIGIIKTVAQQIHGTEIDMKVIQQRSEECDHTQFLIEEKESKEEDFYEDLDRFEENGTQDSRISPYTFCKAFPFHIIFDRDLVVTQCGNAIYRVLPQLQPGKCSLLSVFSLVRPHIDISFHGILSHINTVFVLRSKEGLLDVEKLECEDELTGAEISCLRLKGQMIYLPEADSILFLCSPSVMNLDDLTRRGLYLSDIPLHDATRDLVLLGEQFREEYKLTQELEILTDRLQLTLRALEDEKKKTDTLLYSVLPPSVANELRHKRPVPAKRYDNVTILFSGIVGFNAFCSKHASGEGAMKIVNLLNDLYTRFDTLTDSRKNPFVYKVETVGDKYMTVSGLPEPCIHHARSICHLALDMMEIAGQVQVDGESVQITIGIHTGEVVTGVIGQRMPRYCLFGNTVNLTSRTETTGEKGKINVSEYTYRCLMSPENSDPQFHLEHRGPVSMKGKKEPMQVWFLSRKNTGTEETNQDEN
Experiment: cGMP neuronal cell-based assay
Settings: rat primary hippocampal neurons; 30 μM DETA-NO; cGMP by LC-MS/MS; normalized to 10 μM Compound Y; compounds in Table IA; read-out: sGC-neuron Abs EC50
Experimental: Rat primary neurons were isolated from fetuses of 18-day pregnant Sprague-Dawley females. The fetuses were collected in Hanks' balanced salt solution (HBSS) and brains were rapidly removed. The cerebral hippocampi were isolated and mechanically fragmented. Further tissue digestion was performed with 0.25% (wt/vol) trypsin solution in HBSS without Ca2+ and Mg2+ for 15 min at 37° C. After trypsination, cells were washed and resuspended in neurobasal medium supplemented with 0.5 mM L-glutamine, 12.5 uM glutamic acid, 2% B-27 and 100U/mL penicillin, and 100 μg/mL streptomycin. Cells were plated at a density of 4×10^4 cells/well in a poly-D-lysine coated 384-well flat clear-bottom plate (Corning Cat No 354662). Cells were incubated 6-7 days at 37° C. in a humidified chamber with 5% CO2. Media was removed and cells were washed 1× with HBSS containing Ca2+ and Mg2+, and replaced with 40 uL HBSS containing 0.5 mM IBMX, and incubated for 15 minutes at 37° C. 10 uL of a 5× stock of test compounds with diethylenetriamine NONOate (DETA-NO) was added. Final concentration of DETA-NO was 30 μM. Cells were incubated for 20 min at 37° C. Medium was removed, 50 uL of ice-cold 10% acetic acid was added, and incubated for 60 minutes at 4° C. Following centrifugation at 4° C. for 5 minutes at 1000×g to pellet cell debris, the supernatant was aspirated to a clean plate and the samples were analyzed for cGMP content. cGMP concentrations were determined from each sample using LC-MS/MS.
Data were normalized to a high control using the following equation: 100*(Sample−Low Control)/(High Control−Low Control), where the low control is the average of 15 samples treated with 1% DMSO, and the high control is the average of 15 samples treated with 10 μM of the known sGC stimulator Compound Y (depicted in Example 2). Data were fit using a 4-parameter fit (log(agonist) vs. response—variable slope) using GraphPad Prism Software v.5. n=2 for all compounds. The Absolute EC50 was interpolated from the curve fit and is defined as the concentration at which a given compound elicits 50% of the high control response after data normalization. Compounds failing to elicit a minimum response of 50% are reported as >30 μM. For compounds run in duplicate or n higher than 2, the result herein given is the geometric mean of the several results obtained.

Structure (SMILES) | EC50 [nM]
Fc1cccc(Cn2nc(-c3nc(Cl)n[nH]3)c3cccnc32)c1F [Compound I-86, 3-(3-Chloro-1H-1,2,4-triazol-5-yl)-1-(2,3-difluorobenzyl)-1H-pyrazolo[3,4-b]pyridine] | ≤ 100
N#Cc1n[nH]c(-c2nn(Cc3ccccc3F)c3ncccc23)n1 [Compound I-41] | ≤ 100
Fc1ccccc1Cc1nn(-c2nc(C(F)F)n[nH]2)c2cccnc12 [Compound I-101, 1-(3-(Difluoromethyl)-1H-1,2,4-triazol-5-yl)-3-(2-fluorobenzyl)-1H-pyrazolo[4,3-b]pyridine] | ≤ 100
Fc1cccc(Cn2nc(-c3nc(C(F)(F)F)n[nH]3)c3cccnc32)c1F [Compound I-48, 1-(2,3-Difluorobenzyl)-3-(3-(trifluoromethyl)-1H-1,2,4-triazol-5-yl)-1H-pyrazolo[3,4-b]pyridine] | ≤ 100
Fc1cccc(Cc2nn(-c3nc(C(F)(F)F)n[nH]3)c3cccnc23)c1F [Compound I-105, 3-(2,3-Difluorobenzyl)-1-(3-(trifluoromethyl)-1H-1,2,4-triazol-5-yl)-1H-pyrazolo[4,3-b]pyridine] | ≤ 100
OCc1n[nH]c(-c2nn(Cc3ccccc3F)c3ncccc23)n1 [Compound I-64, (5-(1-(2-fluorobenzyl)-1H-pyrazolo[3,4-b]pyridin-3-yl)-1H-1,2,4-triazol-3-yl)methanol] | ≤ 100
Cc1ncc(Cn2nc(-c3nc(C(F)(F)F)n[nH]3)c3ccccc32)cn1 [Compound I-62, 1-((2-methylpyrimidin-5-yl)methyl)-3-(3-(trifluoromethyl)-1H-1,2,4-triazol-5-yl)-1H-indazole] | ≤ 100
Fc1ccccc1Cn1nc(-c2nc(C3CC3(F)F)n[nH]2)c2cccnc21 (stereo not drawn) [Compound I-96, 3-(3-(2,2-Difluorocyclopropyl)-1H-1,2,4-triazol-5-yl)-1-(2-fluorobenzyl)-1H-pyrazolo[3,4-b]pyridine] | ≤ 100
Fc1ccccc1Cc1nn(-c2nc(C(F)(F)F)n[nH]2)c2cccnc12 [Compound I-31, 3-(2-Fluorobenzyl)-1-(3-(trifluoromethyl)-1H-1,2,4-triazol-5-yl)-1H-pyrazolo[4,3-b]pyridine] | ≤ 100
FC(F)(F)c1n[nH]c(-c2nn(Cc3cncnc3)c3ncccc23)n1 [Compound I-4, 1-(Pyrimidin-5-ylmethyl)-3-(3-(trifluoromethyl)-1H-1,2,4-triazol-5-yl)-1H-pyrazolo[3,4-b]pyridine] | ≤ 100
FC(F)(F)c1n[nH]c(-c2nn(CCC(F)(F)C(F)(F)F)c3ncccc23)n1 [Compound I-2, 1-(3,3,4,4,4-pentafluorobutyl)-3-(3-(trifluoromethyl)-1H-1,2,4-triazol-5-yl)-1H-pyrazolo[3,4-b]pyridine] | ≤ 100
FC(F)(F)c1n[nH]c(-c2nn(Cc3ccccc3)c3ncccc23)n1 [Compound I-49, 1-Benzyl-3-(3-(trifluoromethyl)-1H-1,2,4-triazol-5-yl)-1H-pyrazolo[3,4-b]pyridine] | ≤ 100
